Laboratory results taken from US20220024921A1, “1,3,4-OXADIAZOLONE COMPOUND AND PHARMACEUTICAL” (NIPPON SHINYAKU CO., LTD., priority 2018, published 2022).
Where a name gives a salt, the structure may show the parent alone.

Assays:
[1] = target: T1, PIM1 serine/threonine kinase (Homo sapiens, UniProt P11309); experiment: PIM1 serine/threonine kinase inhibitory effect; format: biochemical; settings: PIM1 serine/threonine kinase activity; ATP 40 μM; 30° C., 30 minutes
T1 construct: purchased Carna Bioscience, Inc
T1 sequence (P11309 whole entry): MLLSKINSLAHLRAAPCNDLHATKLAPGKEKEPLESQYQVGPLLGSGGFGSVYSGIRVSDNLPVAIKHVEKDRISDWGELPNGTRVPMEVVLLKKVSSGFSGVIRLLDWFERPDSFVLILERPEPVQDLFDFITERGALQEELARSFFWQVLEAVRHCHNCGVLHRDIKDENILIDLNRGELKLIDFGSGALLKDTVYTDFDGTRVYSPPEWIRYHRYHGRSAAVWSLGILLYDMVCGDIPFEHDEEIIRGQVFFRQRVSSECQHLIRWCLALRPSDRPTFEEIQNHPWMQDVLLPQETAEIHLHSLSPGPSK
Procedure: Each test substance was prepared to 10 mM with dimethylsulfoxide (DMSO), and further diluted with DMSO so as to have concentrations of 1000, 300, 100, 30, 10, 3, 1, 0.3, 0.1, 0.03, 0.01, and 0.001 μM. Moreover, each dilution was further diluted 33.3-fold with an assay buffer to prepare a test substance solution. The composition of the assay buffer was 50 mM HEPES (pH 7.0), 0.02% NaN3, 0.01% Bovine Serum Albumin, 0.1 mM Orthovanadate, 1 mM Dithiothreitol, and 5 mM MgCl2.
5 μL of each test substance solution was added to 384-well plates (n=2), and then 2.5 μL of a substrate solution (substrate 3-biotin (Cisbio Bioassays SAS), final concentration in the reaction solution: 0.5 μM) and 2.5 μL of an ATP solution (in the cases of PIM1, 2, 3, the final concentrations in the reaction solutions were 40, 2, and 10 μM, respectively) were added, 5 μL of each of PIM1, 2, 3 serine/threonine kinase solutions (Carna Bioscience, Inc., the final concentrations in the reaction solutions were 0.15, 1.6, and 0.25 μg/ml, respectively) was finally added, and the mixture was reacted at 30° C. for 30 minutes. The test substance concentrations in the reaction solutions are 10000, 3000, 1000, 300, 100, 30, 10, 3, 1, 0.3, 0.1, and 0.01 nM.
Thereafter, 15 μL of each detection solution (62.5 nM Streptavidin-XL665 (Cisbio Bioassays SAS), […] STK antibody-Cryptate (Cisbio Bioassays SAS), 50 mM HEPES (pH 7.0), 0.8 M KF, 0.1% Bovine Serum Albumin, 20 mM ethylenediaminetetraacetic acid) was added to each well. After stirring, the mixture was reacted at 30° C. for 1 hour. Absorbance (OD620, OD665) at 620 and 665 nm was measured with a microplate reader (SpectraMax M5e, Molecular Devices, LLC).
Non-linear regression analysis was performed by an SAS system (SAS Institute Inc.) using the ratio (OD665/OD620) of the measured absorbance to calculate a test substance concentration (IC50) that inhibits PIM1 serine/threonine kinase activity by 50%.

[2] = target: PIM1 transgenic cells (Ba/F3) (Homo sapiens, UniProt P11309); experiment: Proliferation inhibitory effect on PIM1 transgenic cells; format: cell-based, mouse; settings: proliferation inhibition, 72 hours, Cell Counting Kit-8, read-out: PIM1 IC50
PIM1 transgenic cells (Ba/F3), sequence (P11309 whole entry, stated change not applied): as the sequence (P11309 whole entry) above
Text: Human PIM1, 2, and 3 genes were inserted into the multi-cloning sites of retrovirus expression vectors pMYs-IRES-GFP, respectively, to prepare gene transfer vectors. Then, each gene transfer vector was introduced into packaging cells PLAT-E derived from a human fetal kidney cell line in the logarithmic growth phase, using a transfection reagent (FuGENE6, Promega Corporation). Since the culture supernatant of PLAT-E after gene transfer contained virus particles for gene transfer, the culture supernatant was collected and used as a medium for gene transfer. The medium for gene transfer was added to a plate coated with RetroNectin, and the plate was incubated to attach the virus particles to the plate. Then, a mouse pro-B cell line Ba/F3 in the logarithmic growth phase was seeded on the plate and infected with the virus to prepare PIM1, 2, or 3 transgenic cells that proliferate in a PIM 1, 2, or 3-dependent manner. The expression of PIM1, 2, or 3 protein in each cell was confirmed by Western blotting.
Each test substance was prepared to 10 mM with dimethylsulfoxide (DMSO), and diluted with DMSO so as to have concentrations of 3000, 1000, 300, 100, 30, 10, 3, and 1 μM. Moreover, each dilution was further diluted 10-fold with distilled water to prepare a test substance solution.
PIM1, 2, 3-expressing cells were seeded on a 96-well plate, and each test substance solution prepared the next day was added such that final concentrations were 10000, 3000, 1000, 300, 100, 30, 10, 3, and 1 nM. 72 hours after the addition, 10 μL of Cell Counting Kit-8 (DOJINDO LABORATORIES) was added to each well. After incubation for 1 to 4 hours, absorbance OD450 at 450 nm was measured. In addition, absorption OD650 at 650 nm as a reference wavelength was measured.
OD450-OD650 for each condition was calculated, and then the inhibition rates when OD450-OD650 of negative control (DMSO only) and OD450-OD650 of Blank (without cells) were set to 0% and 100%, respectively, were calculated. Then, non-linear regression analysis was performed for logarithmic dose and inhibition rate using a two-parameter logistic model to estimate IC50 values.

C[C@H](Nc1cc(-c2n[nH]c(=O)o2)cc(F)c1OC(F)F)C1CCNCC1 [Example 212, 5-[4-(difluoromethoxy)-3-fluoro-5-{[(1S)-1-(piperidin-4-yl)ethyl]amino}phenyl]-1,3,4-oxadiazol-2(3H)-one]
IC50 [1]: 2.1 nM | GI50 [2]: 73 nM

Cc1c(F)cc(-c2n[nH]c(=O)o2)cc1N[C@@H](C)C1CCNCC1 [Example 99, 5-(3-fluoro-4-methyl-5-{[(1S)-1-(piperidin-4-yl)ethyl]amino}phenyl)-1,3,4-oxadiazol-2(3H)-one dihydrochloride]
IC50 [1]: 3.9 nM | GI50 [2]: 97 nM

CC(=O)N[C@H]1C[C@@H](CNc2cc(-c3n[nH]c(=O)o3)ccc2C(F)(F)F)C1(C)C [Example 184, N-[(1S,3R)-2,2-dimethyl-3-{[5-(5-oxo-4,5-dihydro-1,3,4-oxadiazol-2-yl)-2-(trifluoromethyl)anilino]methyl}cyclobutyl]acetamide]
IC50 [1]: 65 nM | GI50 [2]: 880 nM

C[C@H](Nc1cc(-c2n[nH]c(=O)o2)cc(F)c1OC(F)F)C1(C)CCNCC1 [Example 213, 5-[4-(difluoromethoxy)-3-fluoro-5-{[(1S)-1-(4-methylpiperidin-4-yl)ethyl]amino}phenyl]-1,3,4-oxadiazol-2(3H)-one]
IC50 [1]: 2 nM | GI50 [2]: 85 nM

COc1c(F)cc(-c2n[nH]c(=O)o2)cc1N[C@@H](C)[C@H]1CC[C@H](N)CC1 [Example 167, 5-[3-({(1S)-1-[(1r,4S)-4-aminocyclohexyl]ethyl}amino)-5-fluoro-4-methoxyphenyl]-1,3,4-oxadiazol-2(3H)-one hydrochloride]
IC50 [1]: 3.1 nM | GI50 [2]: 94 nM

O=c1[nH]nc(-c2cc(F)c(C(F)(F)F)c(N[C@@H](C(F)F)C3(F)CCNCC3)c2)o1 [Example 163, 5-[3-{[(1R)-2,2-difluoro-1-(4-fluoropiperidin-4-yl)ethyl]amino}-5-fluoro-4-(trifluoromethyl)phenyl]-1,3,4-oxadiazol-2(3H)-one hydrochloride]
IC50 [1]: 2 nM | GI50 [2]: 24 nM

C[C@H](Nc1cc(-c2n[nH]c(=O)o2)ccc1C#N)C1CCNCC1 [Example 85, 4-(5-oxo-4,5-dihydro-1,3,4-oxadiazol-2-yl)-2-{[(1S)-1-(piperidin-4-yl)ethyl]amino}benzonitrile hydrochloride]
IC50 [1]: 4.7 nM | GI50 [2]: 610 nM

CC1CC(CNc2cc(-c3n[nH]c(=O)o3)ccc2C(F)(F)F)CCN1 (stereo not drawn) [Example 143, 5-[3-{[(2-methylpiperidin-4-yl)methyl]amino}-4-(trifluoromethyl)phenyl]-1,3,4-oxadiazol-2(3H)-one hydrochloride]
IC50 [1]: 14 nM | GI50 [2]: 610 nM

C[C@H](Nc1cc(-c2n[nH]c(=O)o2)cc(F)c1C(F)(F)F)[C@H]1C[C@@H](N)C1(C)C [Example 164, 5-[3-({(1S)-1-[(1S,3R)-3-amino-2,2-dimethylcyclobutyl]ethyl}amino)-5-fluoro-4-(trifluoromethyl)phenyl]-1,3,4-oxadiazol-2(3H)-one hydrochloride]
IC50 [1]: 1.7 nM | GI50 [2]: 25 nM

CC[C@H](Nc1cc(-c2n[nH]c(=O)o2)cc(F)c1C(F)(F)F)[C@H]1CC[C@H](N)CC1 [Example 198, 5-[3-({(1S)-1-[(1r,4S)-4-aminocyclohexyl]propyl}amino)-5-fluoro-4-(trifluoromethyl)phenyl]-1,3,4-oxadiazol-2(3H)-one]
IC50 [1]: 3.5 nM | GI50 [2]: 100 nM

NCC[C@H]1CC[C@H](Nc2cc(-c3n[nH]c(=O)o3)ccc2C(F)(F)F)CC1 [Example 44, 5-[3-{[(1r,4r)-4-(2-aminoethyl)cyclohexyl]amino}-4-(trifluoromethyl)phenyl]-1,3,4-oxadiazol-2(3H)-one hydrochloride]
IC50 [1]: 4.2 nM | GI50 [2]: 330 nM

NCCCCCCNc1cc(-c2n[nH]c(=O)o2)ccc1C(F)(F)F [Example 4, 5-{3-[(6-aminohexyl)amino]-4-(trifluoromethyl)phenyl}-1,3,4-oxadiazol-2(3H)-one]
IC50 [1]: 50 nM | GI50 [2]: 3000 nM

N[C@H]1CC[C@@H](COc2cc(-c3n[nH]c(=O)o3)ccc2Cl)CC1 [Example 243, 5-(3-{[(1s,4s)-4-aminocyclohexyl]methoxy}-4-chlorophenyl)-1,3,4-oxadiazol-2(3H)-one]
IC50 [1]: 4.1 nM | GI50 [2]: 150 nM

NCC(O)C1CCN(c2cc(-c3n[nH]c(=O)o3)ccc2C(F)(F)F)CC1 (stereo not drawn) [Example 14, 5-{3-[4-(2-amino-1-hydroxyethyl)piperidin-1-yl]-4-(trifluoromethyl)phenyl}-1,3,4-oxadiazol-2(3H)-one hydrochloride]
IC50 [1]: 12 nM | GI50 [2]: 1300 nM

O=c1[nH]nc(-c2ccc(C(F)(F)F)c(N[C@@H](C(F)F)C3(F)CCNCC3)c2)o1 [Example 140, 5-[3-{[(1R)-2,2-difluoro-1-(4-fluoropiperidin-4-yl)ethyl]amino}-4-(trifluoromethyl)phenyl]-1,3,4-oxadiazol-2(3H)-one hydrochloride]
IC50 [1]: 4.1 nM | GI50 [2]: 57 nM

C[C@H](Nc1cc(-c2n[nH]c(=O)o2)cc(F)c1C(F)(F)F)[C@H]1C[C@@H](N)C1 [Example 165, 5-[3-({(1S)-1-[(1s,3R)-3-aminocyclobutyl]ethyl}amino)-5-fluoro-4-(trifluoromethyl)phenyl]-1,3,4-oxadiazol-2(3H)-one]
IC50 [1]: 2.2 nM | GI50 [2]: 25 nM

C[C@H](Nc1cc(-c2n[nH]c(=O)o2)cc(F)c1OC(F)(F)F)[C@H]1C[C@@H](N)C1 [Example 180, 5-[3-({(1S)-1-[(1s,3R)-3-aminocyclobutyl]ethyl}amino)-5-fluoro-4-(trifluoromethoxy)phenyl]-1,3,4-oxadiazol-2(3H)-one hydrochloride]
IC50 [1]: 2.2 nM | GI50 [2]: 30 nM

C[C@H]1CNCC[C@H]1CNc1cc(-c2n[nH]c(=O)o2)ccc1C(F)(F)F [Example 141, 5-[3-({[(3R,4R)-3-methylpiperidin-4-yl]methyl}amino)-4-(trifluoromethyl)phenyl]-1,3,4-oxadiazol-2(3H)-one hydrochloride]
IC50 [1]: 7.1 nM | GI50 [2]: 250 nM

C[C@H](Nc1cc(-c2n[nH]c(=O)o2)cc(F)c1Cl)C1CCNCC1 [Example 76, 5-(4-chloro-3-fluoro-5-{[(1S)-1-(piperidin-4-yl)ethyl]amino}phenyl)-1,3,4-oxadiazol-2(3H)-one hydrochloride]
IC50 [1]: 1.9 nM | GI50 [2]: 31 nM

C[C@H](Nc1cc(-c2n[nH]c(=O)o2)ccc1C(F)(F)F)C12CCC(N)(CC1)C2 [Example 187, 5-[3-{[(1S)-1-(4-aminobicyclo[2.2.1]heptan-1-yl)ethyl]amino}-4-(trifluoromethyl)phenyl]-1,3,4-oxadiazol-2(3H)-one hydrochloride]
IC50 [1]: 8.7 nM | GI50 [2]: 110 nM

C[C@H](Nc1cc(-c2n[nH]c(=O)o2)ccc1C(F)(F)F)[C@@H]1CC[C@@H](N)CO1 [Example 188, 5-[3-({(S)-1-[(2S,5R)-5-aminotetrahydro-2H-pyran-2-yl]ethyl}amino)-4-(trifluoromethyl)phenyl]-1,3,4-oxadiazol-2(3H)-one]
IC50 [1]: 2.9 nM | GI50 [2]: 56 nM
